Assay results from publication PMC2931804 (Clinical cancer research : an official journal of the …, 2010).
Where “and” joins values, the source holds several entries; their conditions need not be identical. Equal entries are not always repeated. Entries after “also recorded” stand apart in the source; their conditions may differ.

Key:
[1] = FU plasma pharmacokinetics; assay type: in vivo, human; details: at the MTD
[2] = Vorinostat serum pharmacokinetics; assay type: in vivo, human
[3] = system: thymidylate synthase; experiment: Tumor thymidylate synthase expression by RT-PCR in liver metastasis biopsies; assay type: in vivo, human; details: posttreatment biopsies at the MTD levels
[4] = system: dihydropyrimidine dehydrogenase (DPD); experiment: DPD activity assay in peripheral blood mononuclear cells; assay type: in vivo, human
[5] = system: thymidylate synthase; details: in vitro and in vivo models, quantitative-PCR analysis; cited from earlier work
[6] = 300 mg orally twice daily × 1 week with FOLFOX; cited from earlier work
[7] = 600 mg orally twice daily, individual patients, cycle 2
[8] = 1,700 mg orally once daily, individual patients, cycle 2

## O=C(CCCCCCC(=O)Nc1ccccc1)NO [vorinostat, suberoylanilide hydroxamic acid]
[1]
  Pharmacokinetic interactions between vorinostat and FU: No pharmacokinetic interactions
[2]; [7]
  AUC0–8: 7.8 µmol·h/L
  Cmax: 4.99 µM
  Tmax: 2 h and 4 h
[2]; 600 mg orally twice daily, mean of 3 patients (SD 1.51)
  Cmax: 3.46 µM
[2]; [8]
  AUC0–8: 35.1 µmol·h/L and 2.6 µmol·h/L and 26 µmol·h/L
  Cmax: 6.4 µM
  Tmax: 1 h
[2]; 1,700 mg orally once daily, mean of 3 patients (SD 3.09)
  Cmax: 4.49 µM
[2]; human, oral, half-life, general statement in discussion
  half-life: ~120 min
[3]
  Impact of vorinostat on intratumoral thymidylate synthase expression: No definitive impact; also recorded: no clear signs of thymidylate synthase downregulation
[4]; once-daily MTD arm, four patients, day 2 of cycle 1, baseline 0.189
  Mean DPD level: 0.142 nmol/min/mg protein
[4]; once-daily MTD arm, four patients, day 3 of cycle 1, baseline 0.189
  Mean DPD level: 0.138 nmol/min/mg protein
[4]; once-daily MTD arm, four patients, day 7 of cycle 1, baseline 0.189
  Mean DPD level: 0.126 nmol/min/mg protein
[4]; twice-daily MTD arm, three patients, day 2 of cycle 1, baseline 0.253
  Mean DPD level: 0.199 nmol/min/mg protein
[4]; twice-daily MTD arm, three patients, day 3 of cycle 1, baseline 0.253
  Mean DPD level: 0.138 nmol/min/mg protein
[4]; twice-daily MTD arm, three patients, day 7 of cycle 1, baseline 0.253
  Mean DPD level: 0.198 nmol/min/mg protein
[4]; within once-daily or twice-daily cohorts, one way ANOVA (P > 0.05)
  Differences in DPD levels over time: not statistically significant
[5]
  Downregulation of thymidylate synthase expression: ≤ 100 fold
[6]
  maximum vorinostat serum concentrations: < 1.5 µmol/L
